Like-named read-outs stand apart in the source and are kept apart here. Each block holds one compound with its values, some of them ahead of it.
Key:
[1] = test system: MCF7; assay: Inhibition of MCF7 breast tumor cell growth in vitro (72 hour exposure, MTT tetrazolium dye assay); assay type: cell-based, human
Procedure: The MCF7 cell line is a human tumor cell line. This cell line was cultured in MEM( (Eagles) media in a 5% C0^2 atmosphere with 10% fetal calf serum that had been washed twice with dextran coated charcoal to reduce endogenous estrogen levels. The media was supplemented with 1 mM sodium pyruvate and 100 µm non-essential amino acids. The cell line was screened routinely for myoplasma contamination using the GenProbe kit (Fisher). Cells were trypsinized and plated at a density of 5,000 cells/well in 96 well microtiter plates and allowed to attach and recover for 24 hours.
The media was removed by aspiration and replaced with filter sterilized drug (concentration from 10-^4 M to […]) in media. The cells were incubated for 72 hours and then stained using the MTT tetrazolium dye assay of Mosmann^36 except that after the media was removed, the blue formazan product was solubilized in 50 µl/well DMSO.

[2] = biological target: T1, estrogen receptor (Sus scrofa, UniProt Q29040); assay: biochemical
T1 sequence (Q29040 1-595): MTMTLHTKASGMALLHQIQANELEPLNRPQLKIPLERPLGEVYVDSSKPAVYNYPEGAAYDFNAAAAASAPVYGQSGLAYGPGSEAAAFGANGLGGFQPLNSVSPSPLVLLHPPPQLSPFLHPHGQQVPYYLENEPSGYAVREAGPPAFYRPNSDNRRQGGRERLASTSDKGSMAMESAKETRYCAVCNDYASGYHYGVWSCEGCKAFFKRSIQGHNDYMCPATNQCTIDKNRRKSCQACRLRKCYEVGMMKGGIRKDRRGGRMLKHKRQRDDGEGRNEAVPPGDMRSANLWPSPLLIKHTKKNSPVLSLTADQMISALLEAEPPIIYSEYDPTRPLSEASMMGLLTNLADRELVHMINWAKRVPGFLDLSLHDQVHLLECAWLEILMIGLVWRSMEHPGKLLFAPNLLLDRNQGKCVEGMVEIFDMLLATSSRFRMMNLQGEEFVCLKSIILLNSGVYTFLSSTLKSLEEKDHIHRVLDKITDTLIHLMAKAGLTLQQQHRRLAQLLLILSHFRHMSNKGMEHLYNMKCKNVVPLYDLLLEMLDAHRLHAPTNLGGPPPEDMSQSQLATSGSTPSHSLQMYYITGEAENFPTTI
Procedure: (§1) Briefly, uteri (90 gm) were obtained from immature domestic swine (15kg) was homogenized in Tris buffer (10 mM, pH 7.4) (1 uterus/180 ml), which contained EDTA (1.5 mM) and sodium Azide (3 mM). The homogenate was centrifuged at 100,000 g for 1 hour at 4 ° C. Uteri cytosol (contains 2% of protein from corresponding uterus tissue) were then pretreated with dextran-coated charcoal as described.^10 Protein concentrations were determined according to the method of Lowry et al.^12

[3] = biological target: T1, estrogen receptor
Procedure: as §1

[4] = In vivo tissue uptake of ^131I-IMTX (trans) in rat
[5] = IC50(uM), concentration required to decrease bound [^3H]estradiol by 50%, average of three experiments
[6] = IC-50 estrogen receptor binding, [^3H]estradiol (5 nM)
[7] = Table 6, relative potency, IC50 ratio between tamoxifen and competitor, tamoxifen = 100
[8] = Homo sapiens, MCF7, 72 h, Table 6, 72 hour exposure, average of three experiments, read-out: IC50 Dose
[9] = Homo sapiens, MCF7, text values b172, read-out: IC50 MCF7 cell inhibition (converted)

Compound: Fluorotamoxifen [Compound VII (Cis)]
IC50 ([1]; comparative compounds IV and VII, average of three experiments, read-out: IC50 Dose): 4.5 µM
RP ([1]; comparative compounds IV and VII, relative potency, tamoxifen = 100): 224

IC50 [2, 5]: 4 µM
IC50 [2, 6]: 4 µM
RBA [3]: 7.5
Compound: CCN(CC)CCOc1ccc(/C(=C(\CCCCl)c2ccccc2)c2ccccc2)cc1 [Compound XII (Cis), 1[4-(2-Diethylaminoethoxy)phenyl]-1,2-diphenyl-5-chloro-1-pentene]
RP [1, 7]: 335

Compound: CCN(CC)CCOc1ccc(/C(=C(\CCCBr)c2ccccc2)c2ccccc2)cc1 [Compound XI (Cis), 1-[4-(2-Diethylaminoethoxy)phenyl]-1,2-diphenyl-5-bromo-1-entene]
IC50 [2, 5]: 0.8 µM
IC50 [2, 6]: 0.8 µM
RBA ([3]; IC50 ratio between tamoxifen and competitor, tamoxifen printed as 1): 37.5
IC50 ([1]; Homo sapiens, MCF7, 72 h, read-out: IC50 Dose (µM)): 0.62 µM
RP [1, 7]: 2355

Compound: CCN(CC)CCOc1ccc(C(=C(CCF)c2ccccc2)c2ccccc2)cc1 (single isomer, unassigned) [Compound IV (Trans), N,N-diethyl-fluorotamoxifen]
RP [1]: 82

Compound: CCN(CC)CCOc1ccc(C(=C(CCCBr)c2ccccc2)c2ccccc2)cc1 [Compound XI, 1-[4-(2-Diethylaminoethoxy)phenyl]-1,2-diphenyl-5-bromo-1-entene]
IC50 ([2]; IC-50, text value, Example 5): 0.2 µM
IC50 [2, 6]: 0.2 µM

IC50 [2, 6]: 0.4 µM
Compound: CCN(CC)CCOc1ccc(/C(=C(/CCCCl)c2ccccc2)c2ccccc2)cc1 [Compound XII, 1[4-(2-Diethylaminoethoxy)phenyl]-1,2-diphenyl-5-chloro-1-pentene]

Compound: CCN(CC)CCOc1ccc(/C(=C(/CCCI)c2ccccc2)c2ccccc2)cc1 [X (trans)]
Ki [2]: 1000 nM
IC50 ([2]; IC50(M), [^3H]estradiol 5 nM, 4°C): 2 µM
IC50 [2, 5]: 2 µM
IC50 [2, 6]: 2 µM
RBA [3]: 15
RBA* [3]: 1,500
fold higher affinity for the estrogen receptor than native tamoxifen [3]: 15 fold
Ki ([3]; [^3H]estradiol 5 nM, 4°C): 1000 nM
IC50 [1, 8]: 6.3 µM
IC50 [1, 9]: 6.3 µM
RP [1, 7]: 175

IC50 [1, 8]: 11.8 µM
IC50 [1, 9]: 11.8 µM
Compound: CCN(CC)CCOc1ccc(/C(=C(/CCCF)c2ccccc2)c2ccccc2)cc1 [Compound VI (trans)]
RP [1, 7]: 93

Uterus/blood ratio ([4]; 3h): 1.6
Uterus/blood ratio ([4]; 6h): 1.5
Uterus/blood ratio ([4]; 24h): 1.2
tissue uptake liver ([4]; n=5, 3h): 5.3 ± 0.84 % injected dose per organ
tissue uptake uterus ([4]; n=5, 3h): 0.5 ± 0.04 % injected dose per organ
tissue uptake liver ([4]; n=5, 6h): 3.0 ± 0.02 % injected dose per organ
tissue uptake liver ([4]; n=5, 24h): 1.7 ± 0.21 % injected dose per organ
tissue uptake uterus ([4]; n=5, 24h): 0.01 ± 0.001 % injected dose per organ
Compound: CCN(CC)CCOc1ccc(C(=C(CCC[131I])c2ccccc2)c2ccccc2)cc1 (single isomer, unassigned) [^131 I-IMTX (trans)]

Reference: EP0551434B1 (BOARD OF REGENTS THE UNIVERSITY OF TEXAS SYSTEM, priority 1990, dated 1992)
